# Assay results reported in patent US20100152434A1, “Protein Kinase-binding Nucleosides and Associated Methods” (priority 2007, published 2010).
# Like-named read-outs stand apart in the source and are kept apart here.
# Columns and labels:
# SK-OV-3 = test: cells; settings: Homo sapiens, SK-OV-3
# KM12 [1] = test: cells; settings: Homo sapiens, KM12
# OVCAR-4 = test: cells; settings: Homo sapiens, OVCAR-4
# T-47D = test: cells; settings: Homo sapiens, T47D
# IGROV1 [2] = test: cells; settings: Homo sapiens, IGROV-1
# 788-0 = settings: 786-0
# HCT-116 = test: cells; settings: Homo sapiens, HCT-116
# IGROV1 [3] = test system: IGROV1
# KM12 [4] = test system: KM12
# HOP-62 = test: cells; settings: Homo sapiens, HOP-62
# A498 = test: cells; settings: Homo sapiens, A498
# HOP-92 = test: cells; settings: Homo sapiens, HOP-92
# MDA-MB-435 = test: cells; settings: Homo sapiens, MDA-MB-435
# SK-MEL-2 = test: cells; settings: Homo sapiens, SK-MEL-2
# SF-539 = test: cells; settings: Homo sapiens, SF-539
# [5] = Log10 Concentration −4.0, Molar
# [6] = Log10 Concentration −5.0, Molar
# [7] = Log10 Concentration −6.0, Molar
# [8] = Log10 Concentration −7.0, Molar
# [9] = Log10 Concentration −8.0, Molar
smiles,measurement,setting,value
"CNC(=O)NC[C@H]1O[C@@H](n2cnc3c(NC(=O)Nc4ccccc4)ncnc32)C(O[Si](C)(C)C(C)(C)C)[C@H]1O[Si](C)(C)C(C)(C)C (stereo partly drawn) [Compound 25, 2′,3′-Bis-O-(tert-butyldimethylsilyl)-5-deoxy-5′-[(N-methylcarbamoyl)amino]-N^6-(N-phenylcarbamoyl)adenosine]",TGI,NCI-H522,7.14E−6 Molar
same,Percent Growth,NCI-H522; [5],−49%
same,Percent Growth,NCI-H522; [6],−15%
same,Percent Growth,NCI-H522; [7],90%
same,Percent Growth,NCI-H522; [8],90%
same,Percent Growth,NCI-H522; [9],92%
same,GI50,SK-OV-3,5.88 µM
same,IC50,SK-OV-3,> 100 µM
same,GI50,KM12 [1],2.13 µM
same,IC50,KM12 [1],8.05 µM
same,TGI,SF-295,3.18E−5 Molar
same,Percent Growth,SF-295; [5],−7%
same,Percent Growth,SF-295; [6],7%
same,Percent Growth,SF-295; [7],111%
same,Percent Growth,SF-295; [8],107%
same,Percent Growth,SF-295; [9],103%
same,GI50,OVCAR-4,3.44 µM
same,IC50,OVCAR-4,> 100 µM
same,GI50,T-47D,2.87 µM
same,IC50,T-47D,> 100 µM
same,TGI,A549/ATCC,1.20E−5 Molar
same,Percent Growth,A549/ATCC; [5],−30%
same,Percent Growth,A549/ATCC; [6],4%
same,Percent Growth,A549/ATCC; [7],90%
same,Percent Growth,A549/ATCC; [8],98%
same,Percent Growth,A549/ATCC; [9],99%
same,GI50,IGROV1 [2],2.74 µM
same,IC50,IGROV1 [2],> 100 µM
same,TGI,788-0,3.71E−6 Molar
same,Percent Growth,788-0; Log10 Concentration −4.0 Molar,−80%
same,Percent Growth,788-0; Log10 Concentration −5.0 Molar,−83%
same,Percent Growth,788-0; Log10 Concentration −6.0 Molar,110%
same,Percent Growth,788-0; Log10 Concentration −7.0 Molar,113%
same,Percent Growth,788-0; Log10 Concentration −8.0 Molar,103%
same,GI50,HCT-116,2.11 µM
same,IC50,HCT-116,8.8 µM
same,TGI,IGROV1 [3],7.76E−6 Molar
same,Percent Growth,IGROV1 [3]; [5],−39%
same,Percent Growth,IGROV1 [3]; [6],−12%
same,Percent Growth,IGROV1 [3]; [7],98%
same,Percent Growth,IGROV1 [3]; [8],99%
same,Percent Growth,IGROV1 [3]; [9],100%
same,TGI,SF-268,1.40E−5 Molar
same,Percent Growth,SF-268; [5],45%
same,Percent Growth,SF-268; [6],8%
same,Percent Growth,SF-268; [7],102%
same,Percent Growth,SF-268; [8],106%
same,Percent Growth,SF-268; [9],104%
same,TGI,KM12 [4],4.41E−6 Molar
same,Percent Growth,KM12 [4]; [5],−74%
same,Percent Growth,KM12 [4]; [6],−66%
same,Percent Growth,KM12 [4]; [7],107%
same,Percent Growth,KM12 [4]; [8],111%
same,Percent Growth,KM12 [4]; [9],104%
same,GI50,HOP-62,49.8 µM
same,IC50,HOP-62,49 µM
same,TGI,OVCAR-3,5.54E−6 Molar
same,Percent Growth,OVCAR-3; [5],−50%
same,Percent Growth,OVCAR-3; [6],−39%
same,Percent Growth,OVCAR-3; [7],113%
same,Percent Growth,OVCAR-3; [8],113%
same,Percent Growth,OVCAR-3; [9],111%
same,GI50,A498,2.03 µM
same,IC50,A498,1.95 µM
same,TGI,HT29,3.73E−6 Molar
same,Percent Growth,HT29; [5],−100%
same,Percent Growth,HT29; [6],−80%
same,Percent Growth,HT29; [7],107%
same,Percent Growth,HT29; [8],104%
same,Percent Growth,HT29; [9],102%
same,GI50,HOP-92,15.5 µM
same,IC50,HOP-92,97.5 µM
same,GI50,MDA-MB-435,3.41 µM
same,IC50,MDA-MB-435,> 100 µM
same,TGI,RPMI-8226,>1.00E−4 Molar
same,Percent Growth,RPMI-8226; [5],4%
same,Percent Growth,RPMI-8226; [6],5%
same,Percent Growth,RPMI-8226; [7],98%
same,Percent Growth,RPMI-8226; [8],98%
same,Percent Growth,RPMI-8226; [9],102%
same,TGI,MCF7,1.93E−5 Molar
same,Percent Growth,MCF7; [5],−15%
same,Percent Growth,MCF7; [6],5%
same,Percent Growth,MCF7; [7],83%
same,Percent Growth,MCF7; [8],96%
same,Percent Growth,MCF7; [9],99%
same,GI50,SK-MEL-2,2.45 µM
same,IC50,SK-MEL-2,28.3 µM
same,TGI,BT-549,9.18E−6 Molar
same,Percent Growth,BT-549; [5],−35%
same,Percent Growth,BT-549; [6],−10%
same,Percent Growth,BT-549; [7],103%
same,Percent Growth,BT-549; [8],112%
same,Percent Growth,BT-549; [9],113%
same,TGI,DU-145,5.71E−6 Molar
same,Percent Growth,DU-145; [5],−89%
same,Percent Growth,DU-145; [6],−35%
same,Percent Growth,DU-145; [7],109%
same,Percent Growth,DU-145; [8],107%
same,Percent Growth,DU-145; [9],103%
same,TGI,MALME-3M,9.84E−6 Molar
same,Percent Growth,MALME-3M; [5],−48%
same,Percent Growth,MALME-3M; [6],−1%
same,Percent Growth,MALME-3M; [7],96%
same,Percent Growth,MALME-3M; [8],88%
same,Percent Growth,MALME-3M; [9],105%
same,GI50,SF-539,3.07 µM
same,IC50,SF-539,94.3 µM
